Laboratory results: PubChem BioAssay (NCI)
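Protocol summary: plate cells (96-well), add compound at 5 concentrations, incubate 48 h, interpolate endpoints linearly. GI50: concentration for 50% inhibition of growth. TGI denotes the concentration required for complete inhibition of growth.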

What was measured:
Assay in all cases: NCI anticancer screen, dose series, 48 h
HOP-18 NSCLC = test system: HOP-18 NSCLC
DMS 273 small cell lung = test system: DMS 273 small cell lung
XF 498 CNS = test system: XF 498 CNS
DLD-1 colon = test system: DLD-1 colon
LOX IMVI melanoma = test system: LOX IMVI melanoma
RPMI-8226 leukemia = test system: RPMI-8226 leukemia
MDA-MB-435 = test system: MDA-MB-435
BT-549 breast = test system: BT-549 breast
HS 578T breast = test system: HS 578T breast
DU-145 prostate = test system: DU-145 prostate
T-47D breast = test system: T-47D breast
MDA-MB-231 breast = test system: MDA-MB-231 breast

CC(C)(C)[Si](OC1CC(n2cnc3c(N)ncnc32)OC1CO)(c1ccccc1)c1ccccc1 (centres undefined)
TGI (HOP-18 NSCLC): > 100 µM
TGI (DMS 273 small cell lung): 35.8 µM
TGI (XF 498 CNS): 51.3 µM
TGI (DLD-1 colon): 30 µM
TGI (LOX IMVI melanoma): 31.7 µM
TGI (RPMI-8226 leukemia): 43.9 µM

O=C1C(Cl)N(c2ccc(Cl)cc2)C1c1c[nH]c2ccccc12 (centres undefined)
TGI (XF 498 CNS): 31.3 µM
TGI (RPMI-8226 leukemia): > 100 µM

COc1ccc(N2C(=O)/C(=C(\C)c3cc4ccccc4oc3=O)N=C2c2cc([N+](=O)[O-])ccc2Cl)cc1
TGI (HOP-18 NSCLC): > 100 µM
TGI (DLD-1 colon): > 100 µM
TGI (LOX IMVI melanoma): > 100 µM
TGI (RPMI-8226 leukemia): > 100 µM

O=C(O)c1ccc(Nc2c3ccccc3nc3ccccc23)cc1
TGI (HOP-18 NSCLC): > 100 µM
TGI (DMS 273 small cell lung): > 100 µM
TGI (LOX IMVI melanoma): > 100 µM
TGI (RPMI-8226 leukemia): > 100 µM

CN(C)CCCNC(=O)c1cc2[nH]c3c(cnc4ccc([N+](=O)[O-])cc43)c(=O)c2n1C
GI50 (MDA-MB-435): 17.3 µM
TGI (MDA-MB-435): 33.6 µM
GI50 (BT-549 breast): 20.2 µM
TGI (BT-549 breast): 43.2 µM
GI50 (HS 578T breast): 18.1 µM
TGI (HS 578T breast): 41.3 µM
GI50 (LOX IMVI melanoma): 14.4 µM
TGI (LOX IMVI melanoma): 27.5 µM
GI50 (DU-145 prostate): 12.6 µM
TGI (DU-145 prostate): 25.1 µM
GI50 (T-47D breast): 19.3 µM
TGI (T-47D breast): 39.2 µM
GI50 (MDA-MB-231 breast): 16.9 µM
TGI (MDA-MB-231 breast): 30.7 µM
GI50 (RPMI-8226 leukemia): 5.83 µM
TGI (RPMI-8226 leukemia): 19.3 µM

Cc1cc(C)n(C(=C(C(Cl)=C(Cl)Cl)[N+](=O)[O-])n2nc(C)cc2C)n1
TGI (MDA-MB-435): 5.56 µM
TGI (BT-549 breast): 16.3 µM
TGI (HS 578T breast): 20.6 µM
TGI (LOX IMVI melanoma): 4.69 µM
TGI (DU-145 prostate): 14.9 µM
TGI (T-47D breast): 23.1 µM
TGI (MDA-MB-231 breast): 27.8 µM
